Measured values published in the supplement of paper PMC5412046.

Experiments:
SB.msgc-1 [1] = test: viability at highest tested concentration (MAXR) relative to DMSO; higher = less cytotoxic; settings: SB.msgc-1 (sporadic gastric cancer)
Summary of the method: (§1)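 Each entry is viability relative to DMSO, given either at the highest concentration tested or as a trapezoidal area under the curve. Gastric cancer cells from hereditary or sporadic patients (500 cells in 5 μL medium per 1536 well) received compound in DMSO at 11 threefold-diluted concentrations, 23 nL by pintool. Luminescence from CellTiter-Glo was read after 48 h.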

SB.mhdgc-1 [2] = test: as above; settings: SB.mhdgc-1 (hereditary c.1380delA CDH1 gastric cancer)
Summary of the method: as §1

SB.msgc-1 [3] = test: area under the dose-response curve of % viability (trapezoidal, 11 doses) (% viability x log10 concentration); higher = less cytotoxic; settings: SB.msgc-1 (sporadic gastric cancer)
Summary of the method: as §1

SB.mhdgc-1 [4] = test: as above; settings: SB.mhdgc-1 (hereditary c.1380delA CDH1 gastric cancer)
Summary of the method: as §1

With `CCOC(=O)c1c(/C(C#N)=C\N)c2ccc(Cl)c(Cl)c2n1C` [KH-CB19] (top concentration 46.0829 µM) the viability (SB.msgc-1 [1]) was 96%, the viability (SB.mhdgc-1 [2]) was 52.1% and the “area under the dose-response curve” value (SB.msgc-1 [3]) was 531. For the same compound, the “area under the dose-response curve” value (SB.mhdgc-1 [4]) was 416.

With `Cc1cc(SCc2sc(-c3ccc(C(F)(F)F)cc3)nc2C)ccc1OCC(=O)O` (top concentration 46.0829 µM) the viability (SB.msgc-1 [1]) was 50.9%, the viability (SB.mhdgc-1 [2]) was 111% and the “area under the dose-response curve” value (SB.msgc-1 [3]) was 271. For the same compound, the “area under the dose-response curve” value (SB.mhdgc-1 [4]) was 590.

For `C[C@H](NCc1ccc(OCc2cccc(F)c2)cc1)C(N)=O` [Safinamide mesilate] (top concentration 46.0829 µM), the viability (SB.msgc-1 [1]) was 9.89%, the viability (SB.mhdgc-1 [2]) was 3.26% and the “area under the dose-response curve” value (SB.msgc-1 [3]) was 463. The “area under the dose-response curve” value (SB.mhdgc-1 [4]) was 508.

In the case of `FC(F)c1nc2ccccc2n1-c1nc(N2CCOCC2)nc(N2CCOCC2)n1` [ZSTK-474] (top concentration 46.0829 µM), the viability (SB.msgc-1 [1]) is reported as 30.8%, the viability (SB.mhdgc-1 [2]) is reported as 29.3% and the “area under the dose-response curve” value (SB.msgc-1 [3]) is reported as 369. The “area under the dose-response curve” value (SB.mhdgc-1 [4]) was 322.

`COCCn1c2c([n+](Cc3cnccn3)c1C)C(=O)c1ccccc1C2=O` [Sepantronium bromide] (top concentration 46.0829 µM) was tested, and the viability (SB.msgc-1 [1]) was 0.172%, the viability (SB.mhdgc-1 [2]) was 2.42% and the “area under the dose-response curve” value (SB.msgc-1 [3]) was 183. The “area under the dose-response curve” value (SB.mhdgc-1 [4]) was 236.

`COc1ccc2c(c[n+](C)c3c4cc5c(cc4ccc23)OCO5)c1OC` [Chelerythrine chloride] (top concentration 46.0829 µM) was tested, and the viability (SB.msgc-1 [1]) was 2.21%, the viability (SB.mhdgc-1 [2]) was 2.88% and the “area under the dose-response curve” value (SB.msgc-1 [3]) was 464. The “area under the dose-response curve” value (SB.mhdgc-1 [4]) was 441.

`CCCCn1c(=O)n(Cc2ccccc2F)c(=O)c2nc(Cc3ccc(NC(C)=O)cc3)[nH]c21` [cPEPCK inhibitor] (top concentration 46.0829 µM) was tested, and the viability (SB.msgc-1 [1]) was 61%, the viability (SB.mhdgc-1 [2]) was 54.1% and the “area under the dose-response curve” value (SB.msgc-1 [3]) was 411. The “area under the dose-response curve” value (SB.mhdgc-1 [4]) was 421.

In the case of `COC1=C(OC)C(=O)C(C/C=C(\C)CC/C=C(\C)CC/C=C(\C)CC/C=C(\C)CC/C=C(\C)CC/C=C(\C)CC/C=C(\C)CC/C=C(\C)CC/C=C(\C)CCC=C(C)C)=C(C)C1=O` [Coenzyme Q10] (top concentration 46.0829 µM), the viability (SB.msgc-1 [1]) is reported as 117%, the viability (SB.mhdgc-1 [2]) is reported as 92.7% and the “area under the dose-response curve” value (SB.msgc-1 [3]) is reported as 563. The “area under the dose-response curve” value (SB.mhdgc-1 [4]) was 544.

For `NCCCCNCCCN` [Spermidine] (top concentration 46.0829 µM), the viability (SB.msgc-1 [1]) was 12.4%, the viability (SB.mhdgc-1 [2]) was 47.6% and the “area under the dose-response curve” value (SB.msgc-1 [3]) was 538. The “area under the dose-response curve” value (SB.mhdgc-1 [4]) was 493.

`Cn1cnc2c(F)c(Nc3ccc(Br)cc3Cl)c(C(=O)NOCCO)cc21` [Selumetinib] (top concentration 46.0829 µM) was tested, and the viability (SB.msgc-1 [1]) was 24.2%, the viability (SB.mhdgc-1 [2]) was 43.8% and the “area under the dose-response curve” value (SB.msgc-1 [3]) was 455. The “area under the dose-response curve” value (SB.mhdgc-1 [4]) was 422.

With `COC[C@H]1OC(=O)C2=COC3=C2[C@@]1(C)\C4=C(C5CCC(=O)[C@@]5(C)C[C@H]4OC(C)=O)/C3=O` (stereo partly drawn) [Wortmannin] (top concentration 46.0829 µM) the viability (SB.msgc-1 [1]) was 43.5%, the viability (SB.mhdgc-1 [2]) was 51.1% and the “area under the dose-response curve” value (SB.msgc-1 [3]) was 406. For the same compound, the “area under the dose-response curve” value (SB.mhdgc-1 [4]) was 443.

In the case of `Nc1nc(N)c2nc(-c3cccc(O)c3)c(-c3cccc(O)c3)nc2n1` (top concentration 46.0829 µM), the viability (SB.msgc-1 [1]) is reported as 38.3%, the viability (SB.mhdgc-1 [2]) is reported as 35.2% and the “area under the dose-response curve” value (SB.msgc-1 [3]) is reported as 480. The “area under the dose-response curve” value (SB.mhdgc-1 [4]) was 445.

`CC[C@H](NC1=C2N=C[NH]C2=NC=N1)C/3=N/C4=C(C(=CC=C4)F)C(=O)N3C5=CC=CC=C5` [CAL-101] (top concentration 46.0829 µM) was tested, and the viability (SB.msgc-1 [1]) was 28.5%, the viability (SB.mhdgc-1 [2]) was 9.41% and the “area under the dose-response curve” value (SB.msgc-1 [3]) was 455. For the same compound, the “area under the dose-response curve” value (SB.mhdgc-1 [4]) was 436.

With `COc1nc(N)nc2c1ncn2[C@@H]1O[C@H](CO)[C@@H](O)[C@@H]1O` [Nelarabine] (top concentration 46.0829 µM) the viability (SB.msgc-1 [1]) was 120%, the viability (SB.mhdgc-1 [2]) was 75% and the “area under the dose-response curve” value (SB.msgc-1 [3]) was 585. For the same compound, the “area under the dose-response curve” value (SB.mhdgc-1 [4]) was 504.

`CC(C)(C)NC(=O)Nc1cccc(Nc2ncc(F)c(NC(C)(C)CO)n2)c1` [Bayer-18] (top concentration 46.0829 µM) was tested, and the viability (SB.msgc-1 [1]) was 51.1%, the viability (SB.mhdgc-1 [2]) was 114% and the “area under the dose-response curve” value (SB.msgc-1 [3]) was 514. The “area under the dose-response curve” value (SB.mhdgc-1 [4]) was 478.

With `CCC[C@@H]1C[C@@H](C(=O)N[C@@H]([C@H]2O[C@H](SC)[C@H](O)[C@@H](O)[C@H]2O)[C@@H](C)O)N(C)C1.Cl` [Lincomycin  hydrochloride] (top concentration 46.0829 µM) the viability (SB.msgc-1 [1]) was 94%, the viability (SB.mhdgc-1 [2]) was 85.3% and the “area under the dose-response curve” value (SB.msgc-1 [3]) was 548. For the same compound, the “area under the dose-response curve” value (SB.mhdgc-1 [4]) was 525.

For `O=C(CCN1CCN(C(=O)OCc2cc(Cl)cc(Cl)c2)CC1)c1ccc2[nH]c(=O)oc2c1` [PF-8380] (top concentration 46.0829 µM), the viability (SB.msgc-1 [1]) was 89.4%, the viability (SB.mhdgc-1 [2]) was 74.2% and the “area under the dose-response curve” value (SB.msgc-1 [3]) was 578. For the same compound, the “area under the dose-response curve” value (SB.mhdgc-1 [4]) was 517.
